# Where two headings read alike, the source gives them in different places.
# Experiments:
# Cyclin E1 = test: Western blot protein expression, Cyclin E1; assay type: cell-based, human; settings: HT-29, IC50 dose, 12 h and 24 h
# Method: (§1) Protein Expression Analysis. Western Blot was performed to assess the expression level of different proteins before and after treatment. In brief, HT-29 cells were treated with the compound for different time intervals and the whole-cell lysates were made by lysing cells using RIPA buffer (Thermo Scientific, USA). Protease (Roche, USA) and phosphatase inhibitor cocktails (Sigma-Aldrich, USA) were used to prevent the degradation of the proteins present in the lysate. The resulting lysates were incubated on ice for 30 min and spun at 10,000 rpm for 15 min to pellet down cell debris. The total protein concentration was determined using Bradford assay (Thermo Scientific, USA). Equal amounts of cell lysates were resolved using NuPAGE gel 4-12% (Life Technologies, Carlsbad, Calif.). The resolved proteins were electro-transferred to a PVDF membrane and different antibodies were used to probe the protein expression levels. Enhanced Chemiluminescent reagent (Life technologies, USA) was used to detect the protein of interest.
# (§2) To further explore the underlying mechanism of the cell cycle arrest, we studied the expression levels of the different proteins involved in the cell cycle regulation. […] At both time intervals of 12 h and 24 h, the expression levels of cell cycle regulatory proteins cyclin E1 and cyclin B1 were inhibited while p21 was induced (FIG. 7B).
# HT-29 cells [1] = test: Caspase 3/7 assay; assay type: cell-based, human; settings: HT29, 5 μM
# Method: (§3) Apoptosis assay. Induction of apoptosis after the treatment with compounds 1a and 6a were analyzed using Annexin V & Dead cell assay kit and Caspase 3/7 Assay kit (EMD Millipore, Billercia, Mass.) using Muse cell analyzer following manufacturer's protocol. Briefly, the HT-29 cells were plated in triplicates in a six-well plate at densities of 1×10^5 cells/well. Following day, the cells were treated with the compounds 1a and 6a and incubated for 48 h. At the end of the treatment duration, the cells were prepared following manufacturer's guidelines and the data were acquired using Muse 1.4 software.
# (§4) Compounds 1a and 6a induced apoptosis in CRC cells. We further investigated whether the inhibition of cell cycle leads to apoptosis. In pursuit of this, HT29 cells were treated with 5 μM of the compounds 1a and 6a for indicated time intervals. Apoptosis was measured by using Annexin V & Dead cell assay kit and Caspase 3/7 Assay kit using Muse cell analyzer following manufacturer's protocol. The live cell population resided in the lower left quadrant and they start shifting towards the lower right quadrant (early apoptotic) or to upper right quadrant (late apoptotic/dead) after treatments. […] A similar trend was also observed after 6a treatment where the live cell population were decreased from <75% to <65% after 12 h and 24 h treatment, respectively.
# p21 = test: Western blot protein expression, p21; assay type: cell-based, human; settings: HT-29, IC50 dose, 12 h and 24 h
# Method: as §1, §2
# [2] = test system: PANC-1 (pancreatic carcinoma); test: MTT cell viability assay, Panc-1; settings: for cell viability: 48 h
# Method: (§5) Cell Culture Conditions. The cell lines were obtained from the American Type Culture Collection (ATCC). PANC-1 and Caco-2 cell lines were maintained in DMEM medium (Gibco); HT-29, HCT-116 and RKO cells were maintained in McCoy's 5A medium (Gibco); and DU-145 and H1299 cells were maintained in RPMI 1640 medium (Gibco), supplemented with 10% fetal bovine serum (FBS; Gibco) and 1% antibiotics (10.00 units/mL penicillin and 10.00 mg/mL streptomycin; Gibco). Cells were preserved in tissue culture flasks at 37° C. and 5% CO2. Culture medium was replaced every three days.
# (§6) Cell Viability Assay. The effect of each compound on cell viability was tested using the MTT assay (81). Briefly, 9000 cells/well were grown in 96-well plates for 12 h. Then these cells were incubated with either DMSO (control) or nine different concentration between 0.01-50 μM of the test compounds for 24, 48, and 72 h. Three hours before the termination point, 20 μL of MTT were added to measure cellular viability. The resultant formazan crystals were dissolved in 50 μL of DMSO, and absorbance was measured at 570 nm and 630 nm wavelengths. IC50, GI50, TGI and LC50 values were calculated using OriginPro 8.5.1.
# (§7) Evaluation of the antiproliferative activities of the novel molecules. […] These four cell lines were treated with each compound at three concentrations (5, 25 and 50 μM) for 48 h.
# [3] = test system: human CRC cells (HT-29, HCT-116, RKO and CACO-2); test: MTT assay, panel of four CRC cells; assay type: cell-based; settings: 4 CRC cells
# Method: Cell Culture Conditions. […] Culture medium was replaced every three days.
# Evaluation of the antiproliferative activity of methylseleno-NSAIDs, MSA and NSAIDs alone or in combination. […] CRC cells were treated for 24, 48 and 72 h at different concentrations to stablish the dose-response curves.
# HT-29 (CRC) = test: MTT cell viability assay, HT-29; settings: for CC50: read-out: LC50; for cell viability: 48 h
# Method: as §5, §6, §7
# HCT-116 CRC cells = test: MTT cell viability assay, HCT-116; assay type: cell-based, human; settings: read-out: IC50
# Method: as §5, §6
# HT-29 cells [4] = test: Annexin V & Dead cell apoptosis assay; assay type: cell-based, human; settings: HT29, 5 μM, 12 h
# Method: as §3, §4
# Cyclin B1 = test: Western blot protein expression, Cyclin B1; assay type: cell-based, human; settings: HT-29, IC50 dose, 12 h and 24 h
# Method: as §1, §2
# CACO-2 CRC cells = test: cells
# Method: as §5, §6
# RKO CRC cells = test: cells
# Method: as §5, §6
# [5] = test system: DU-145 (prostate carcinoma); test: MTT cell viability assay, DU-145; settings: for cell viability: 48 h
# Method: as §5, §6, §7
# [6] = Homo sapiens, PANC-1, 48 h, read-out: cell viability
# [7] = Homo sapiens, HT-29, 48 h, read-out: cell viability
# [8] = Homo sapiens, DU-145, 48 h, read-out: cell viability
smiles,measurement,setting,value
"C[Se]C(=O)c1ccccc1OC(C)=O [Compound 1a, 2-((methylselanyl)carbonyl)phenyl acetate]",expression level of Cyclin E1,Cyclin E1,went down substantially
same,apoptotic cell population,HT-29 cells [1],time dependent increase
same,expression level of p21,p21,sharp increase
same,viability at 5 µM,[2]; [6],43.7 ± 12.1%
same,viability at 25 µM,[2]; [6],36.9 ± 6.3%
same,viability at 50 µM,[2]; [6],36.8 ± 6.8%
same,anti-tumoral activity versus MSA and NSAIDs as single agents or combined,[3],higher anti-tumoral activity
same,increase on cytotoxic potency compared with parent NSAID scaffolds,HT-29 (CRC),three-fold
same,TGI,"HT-29 (CRC); HT-29, 24 h",0.5 ± 0.3 µM
same,TGI,"HT-29 (CRC); HT-29, 48 h",0.2 ± 0.1 µM
same,TGI,"HT-29 (CRC); HT-29, 72 h",0.7 ± 0.3 µM
same,GI50,"HT-29 (CRC); Homo sapiens, HT-29, 24 h",100 ± 100 nM
same,IC50,"HT-29 (CRC); Homo sapiens, HT-29, 24 h",1900 ± 600 nM
same,CC50,"HT-29 (CRC); Homo sapiens, HT-29, 24 h",1700 ± 1600 nM
same,GI50,"HT-29 (CRC); Homo sapiens, HT-29, 48 h",100 ± 100 nM
same,IC50,"HT-29 (CRC); Homo sapiens, HT-29, 48 h",1200 ± 100 nM
same,CC50,"HT-29 (CRC); Homo sapiens, HT-29, 48 h",700 ± 100 nM
same,viability at 5 µM,HT-29 (CRC); [7],20.8 ± 5.6%
same,viability at 25 µM,HT-29 (CRC); [7],18.5 ± 4.1%
same,viability at 50 µM,HT-29 (CRC); [7],17.7 ± 12.6%
same,GI50,"HT-29 (CRC); Homo sapiens, HT-29, 72 h",200 ± 100 nM
same,IC50,"HT-29 (CRC); Homo sapiens, HT-29, 72 h",1200 ± 400 nM
same,CC50,"HT-29 (CRC); Homo sapiens, HT-29, 72 h",2500 ± 1400 nM
same,cytotoxicity at 5 µM,"HT-29 (CRC); Homo sapiens, HT-29, read-out: inhibition in cell viability",75 to 80%
same,IC50,"HCT-116 CRC cells; Homo sapiens, HCT-116, 24 h",> 50000 nM
same,IC50,"HCT-116 CRC cells; Homo sapiens, HCT-116, 48 h",2200 ± 300 nM
same,IC50,"HCT-116 CRC cells; Homo sapiens, HCT-116, 72 h",1000 ± 200 nM
same,live cells,HT-29 cells [4],< 76%
same,expression level of Cyclin B1,Cyclin B1,went down substantially
same,IC50,"CACO-2 CRC cells; Homo sapiens, Caco-2, 24 h",2600 ± 200 nM
same,IC50,"CACO-2 CRC cells; Homo sapiens, Caco-2, 48 h",900 ± 100 nM
same,IC50,"CACO-2 CRC cells; Homo sapiens, Caco-2, 72 h",800 ± 100 nM
same,IC50,"RKO CRC cells; Homo sapiens, 24 h",> 50 µM
same,IC50,"RKO CRC cells; Homo sapiens, 48 h",> 50 µM
same,IC50,"RKO CRC cells; Homo sapiens, 72 h",> 50 µM
same,viability at 5 µM,[5]; [8],43.2 ± 1.8%
same,viability at 25 µM,[5]; [8],35.9 ± 7%
same,viability at 50 µM,[5]; [8],36.5 ± 6.7%
"C[Se]C(=O)CC1=C(C)/C(=C/c2ccc([S+](C)[O-])cc2)c2ccc(F)cc21 (stereo not drawn) [Compound 6a, Se-methyl (Z)-2-(5-fluoro-2-methyl-1-(4-(methylsulfinyl)benzylidene)-1H-indenyl)ethaneselenoate]",expression level of Cyclin E1,Cyclin E1,went down substantially
same,apoptotic cell population,HT-29 cells [1],time dependent increase
same,expression level of p21,p21,sharp increase
same,cell viability,"[2]; Panc-1, 5 μM",49.4 ± 20.1%
same,cell viability,"[2]; Panc-1, 25 μM",29.0 ± 9.5%
same,cell viability,"[2]; Panc-1, 50 μM",21.3 ± 9.2%
same,anti-tumoral activity versus MSA and NSAIDs as single agents or combined,[3],higher anti-tumoral activity
same,increase on cytotoxic potency compared with parent NSAID scaffolds,HT-29 (CRC); HT-29,three-fold
same,cell viability,"HT-29 (CRC); HT-29, 5 μM",22.9 ± 2.9%
same,cell viability,"HT-29 (CRC); HT-29, 25 μM",11.9 ± 6.6%
same,cell viability,"HT-29 (CRC); HT-29, 50 μM",11.1 ± 6.2%
same,GI50,"HT-29 (CRC); HT-29, 24 h",1200 ± 1100 nM
same,IC50,"HT-29 (CRC); HT-29, 24 h",2400 ± 300 nM
same,TGI,"HT-29 (CRC); HT-29, 24 h",9.9 ± 3.9 µM
same,GI50,"HT-29 (CRC); HT-29, 48 h",1400 ± 700 nM
same,IC50,"HT-29 (CRC); HT-29, 48 h",2000 ± 700 nM
same,TGI,"HT-29 (CRC); HT-29, 48 h",3.3 ± 0.3 µM
same,GI50,"HT-29 (CRC); HT-29, 72 h",500 ± 500 nM
same,IC50,"HT-29 (CRC); HT-29, 72 h",1400 ± 300 nM
same,TGI,"HT-29 (CRC); HT-29, 72 h",2.4 ± 0.4 µM
same,CC50,"HT-29 (CRC); HT-29, 24 h",> 50000 nM
same,CC50,"HT-29 (CRC); HT-29, 48 h",10100 ± 5200 nM
same,CC50,"HT-29 (CRC); HT-29, 72 h",6300 ± 700 nM
same,IC50,"HCT-116 CRC cells; HCT-116, 24 h",7300 ± 2300 nM
same,IC50,"HCT-116 CRC cells; HCT-116, 48 h",3200 ± 700 nM
same,IC50,"HCT-116 CRC cells; HCT-116, 72 h",1800 ± 600 nM
same,live cells,HT-29 cells [4],< 75%
same,expression level of Cyclin B1,Cyclin B1,went down substantially
same,IC50,"CACO-2 CRC cells; CACO-2, 24 h",3000 ± 500 nM
same,IC50,"CACO-2 CRC cells; CACO-2, 48 h",1300 ± 600 nM
same,IC50,"CACO-2 CRC cells; CACO-2, 72 h",700 ± 200 nM
same,IC50,"RKO CRC cells; RKO, 24 h",> 50 µM
same,IC50,"RKO CRC cells; RKO, 48 h",17.2 ± 2.4 µM
same,IC50,"RKO CRC cells; RKO, 72 h",17.3 ± 0.8 µM
same,cell viability,"[5]; DU145, 5 μM",60.1 ± 2.2%
same,cell viability,"[5]; DU145, 25 μM",44.9 ± 2.4%
same,cell viability,"[5]; DU145, 50 μM",52.5 ± 2.9%

# Source: patent US20230219886A1, “NOVEL SELENO-NSAID ANALOGS AND USES THEREOF” (THE PENN STATE RESEARCH FOUNDATION, priority 2020, published 2023)
